Assay results: paper PMC8915582, “Validated DBS method for filgotinib quantitation in rat dried blood spots and its application to a pharmacokinetic study in rats” (ADMET & DMPK, 2020)
Where two headings read alike, the source gives them in different places. Each block holds one compound with its values, some of them ahead of it.

How the values were obtained:
[1] = tested on: rheumatoid arthritis; set-up: method as in PMID 26994322; conditions: approved pan-JAK inhibitors, moderate to severe rheumatoid arthritis; cited from earlier work
[2] = tested on: JAK1; conditions: cited from earlier work
[3] = tested on: JAK2; conditions: JAK1 over JAK2; cited from earlier work
[4] = tested on: collagen-induced arthritis model; set-up: method as in PMID 24006460; conditions: post oral administration in rodents; cited from earlier work
[5] = Stability of primary stock solutions in DMSO; format: physicochemical; conditions: primary stock in DMSO stored at -20 °C
Method: Two separate primary stock solutions of filgotinib were prepared at 1670 μg/mL in DMSO. Appropriate secondary and working stocks of filgotinib were prepared from primary stock by successive dilution of primary stock with methanol:water (80:20, v/v) to prepare the calibration curve (CC) and quality controls (QCs). The IS primary stock solution was made in DMSO at a concentration of 1000 μg/mL, which was diluted with methanol to 500 ng/mL and subsequently used as IS working stock solution. […] Working stock solutions were stored at 4 °C for 25 days.

[6] = Pharmacokinetic study in rats (oral and intravenous), filgotinib quantified from dried blood spots by LC-MS/MS; format: in vivo; conditions: male, Sprague Dawley, whole blood (dried blood spots), rat, DBS blood
Method: Freshly drawn rat blood was used to prepare the DBS cards. With the help of a calibrated pipette, 25 μL of the respective spiked CC/QC blood or whole blood collected from the pharmacokinetic study (post administration of filgotinib by intravenous and oral routes) was sampled on DBS card. Spiked cards were allowed to dry at ambient room temperature for 3 h and stored appropriately in a sealed bag with desiccant in a desiccator.
Using a hole puncher (Harri-Micro-Punch®), 3 mm diameter disc was punched from the center of each DBS (FTA DMPK-C Card) card directly into micro-centrifuge tubes. To each micro-centrifuge tube, 200 μL of 0.2% formic acid enriched with 100 ng/mL of IS was added, thereafter the contents were vortex mixed for 5 min (Thermomixer®, Eppendorf) and sonicated (Elmasonic S300 H) for 15 min at ambient room temperature. After sonication, to the same micro-centrifuge, 1.0 mL of ethyl acetate was added and the mixtures were vortexed further for 3 min. The samples were centrifuged at 14,000 rpm for 3 min. Clear organic layer (800 μL) was pipetted out after centrifugation and dried under gentle stream of nitrogen (Turbovap®, Zymark®,Kopkinton, MA, USA) at 50 °C. The residue was reconstituted with 200 μL of 0.2% formic acid in acetonitrile and 150 μL clear supernatant was aliquoted into a HPLC vial and 5.0 μL was injected onto the column for LC-MS/MS analysis.
All the animal experiments were approved by Institutional Animal Ethical Committee (IAEC/JDC/2019/189R). Male Sprague Dawley rats (n=8) were procured from Vivo Biotech, Hyderabad, India. The animals were housed in Jubilant Biosys animal house facility in a temperature (22 ± 2 °C) and humidity (30-70%) controlled room (15 air changes/hour) with a 12:12 h light:dark cycles, had free access to rodent feed (Altromin Spezialfutter GmbH & Co. KG., Im Seelenkamp 20, D-32791, Lage, Germany) and water for one week before using for experimental purpose. Following ~12 h fast (during the fasting period animals had free access to water) animals were divided into two groups having four rats in each group. Group I animals (205-210) received filgotinib orally as a suspension formulation (prepared using Tween-80 and 0.5% methyl cellulose) at 10 mg/kg (strength: 1.0 mg/mL; dose volume: 10 mL/kg), whereas Group II animals (215-225 g) received filgotinib intravenously (5% DMSO, 5% Solutol:absolute alcohol (1:1, v/v) and 90% of normal saline; strength: 0.5 mg/ml; dose volume: 4 ml/kg) at 2.0 mg/kg dose. Post-dosing serial blood samples (50 μL) were collected through retro-orbital plexus into polypropylene tubes containing K2.EDTA solution as an anti-coagulant at 0.25, 0.5, 1, 2, 4, 8, 10, 12 and 24 h (for oral study) and 0.083, 0.25, 0.5, 1, 2, 4, 8 and 24 h (for intravenous study). Animals were allowed to access feed 2 h post-dosing.
Blood concentration-time data of filgotinib was analyzed by non-compartmental method and the relevant pharmacokinetic parameters namely AUC0-∞ (area under the blood concentration-time curve from time zero to infinite time), C0 (extrapolated blood concentration at time zero), Cmax (maximum blood concentration), Tmax (time to reach Cmax), Vd (volume of distribution), CL (clearance) and t½ (terminal half-life) were calculated using Phoenix WinNonlin software (version 8.1; Pharsight Corporation, Mountain View, CA). Absolute oral bioavailability (F) was calculated using this formula [Dose (i.v.) × AUC(0-∞)oral / Dose (oral) × AUC(0-∞)i.v.] × 100.

[7] = set-up: method as in Dixit et al. (2020) [10]; conditions: rat, plasma, values in parentheses, ref Dixit et al. (2020) [10], cited from earlier work
[8] = tested on: rheumatoid arthritis patients; set-up: method as in PMID 29566740; conditions: monotherapy at 100 or 200 mg once daily or with methotrexate; cited from earlier work

Compound: CCS(=O)(=O)N1CC(CC#N)(n2cc(-c3ncnc4[nH]ccc34)cn2)C1 [baricitinib]
toxicities [1]: dose-related toxicities

half-life ([6]; intravenous, 2.0 mg/kg): 211 ± 13.8 min
bioavailability ([6]; oral 10 mg/kg vs intravenous 2.0 mg/kg, read-out: F (absolute oral bioavailability)): 42.5%
Compound: O=C(Nc1nc2cccc(-c3ccc(CN4CCS(=O)(=O)CC4)cc3)n2n1)C1CC1 [filgotinib]
disease progression in a collagen-induced arthritis model [4]: dose-dependent reduction of disease progression
Vd ([7]; intravenous, 2.0 mg/kg): 5.41 ± 0.77 L/kg
F (absolute oral bioavailability) ([7]; oral, 10 mg/kg): 36.3%
tolerability, efficacy and safety in Phase-3 clinical trials [8]: well tolerated, showed efficacy and was found to be safe

Compound: C[C@@H]1CCN(C(=O)CC#N)C[C@@H]1N(C)c1ncnc2[nH]ccc12 [Tofacitinib, tofacitinib]
toxicities [1]: dose-related toxicities
time primary stock solution found to be stable [5]: 50 days
